Laboratory results published in patent publication US6573274B1, “Sulfonamide compounds and uses thereof as medicines” (Fujisawa Pharmaceutical Co. Ltd., priority 1998, dated 2003).
Counter-ions that a name gives are not always drawn.

Structure (SMILES)	melting point [°C]
CCCCCS(=O)(=O)NC(=O)c1ccc2nc(C)n(Cc3cnc(Cl)cc3Cl)c2n1	161 to 163
CCCCCS(=O)(=O)NC(=O)c1cc(C)c2nc(C)n(Cc3ccc(C#Cc4ccccc4)cc3Cl)c2n1.[Na]	175 to 178
CCCCCS(=O)(=O)NC(=O)c1ccc2nc(C)n(Cc3ccc(-c4ccc(Cl)s4)cc3Cl)c2n1.[Na]	> 250
Cc1cc(C(=O)NS(=O)(=O)c2ccc(Br)s2)nc2c1nc(C)n2Cc1ccc(-c2ccccc2)cc1Cl.[Na]	> 250
CCCCCS(=O)(=O)NC(=O)c1ccc2nc(C)n(Cc3ccc(N(C)C(=O)OC(C)(C)C)cc3Cl)c2n1.[Na]	231 to 233
CCC/C=C/S(=O)(=O)NC(=O)c1ccc2nc(C)n(Cc3ncc(NC(=O)OC(C)(C)C)cc3Cl)c2n1 (as salt: sodium) [Example 130, 3-[(5-(N-(tert-butoxycarbonyl)amino)-3-chloropyridin-2-yl)methyl]-2-methyl-5-((E)-1-penten-1-ylsulfonylcarbamoyl)-3H-imidazo[4,5-b]pyridine]	202 to 204
CCC/C=C/S(=O)(=O)NC(=O)c1ccc2nc(C)n(Cc3ncc(NC(=O)OCC)cc3Cl)c2n1 (as salt: sodium) [Example 133, 3-[(3-chloro-5-(N-(ethoxycarbonyl)amino)pyridin-2-yl)methyl]-2-methyl-5-((E)-1-penten-1-ylsulfonylcarbamoyl)-3H-imidazo[4,5-b]pyridine]	236 to 239
CCCCCS(=O)(=O)NC(=O)c1ccc2nc(C)n(Cc3ccc(OC)cc3Cl)c2n1 [Example 5, 3-(2-chloro-4-methoxybenzyl)-2-methyl-5-(1-pentanesulfonylcarbamoyl)-3H-imidazo[4,5-b]pyridine]	188 to 189
CCCCS(=O)(=O)NC(=O)c1ccc2nc(C)n(Cc3ccc(OC)cc3Cl)c2n1 [Example 6, 5-(1-butanesulfonylcarbamoyl)-3-(2-chloro-4-methoxybenzyl)-2-methyl-3H-imidazo[4,5-b]pyridine]	175 to 177
CCCCCS(=O)(=O)NC(=O)c1ccc2nc(C)n(Cc3ccc(OCC)cc3Cl)c2n1 [Example 8, 3-(2-chloro-4-ethoxybenzyl)-2-methyl-5-(1-pentanesulfonylcarbamoyl)-3H-imidazo[4,5-b]pyridine]	165 to 166
CCCCS(=O)(=O)NC(=O)c1ccc2nc(C)n(Cc3ccc(OCC)cc3Cl)c2n1 [Example 9, 5-(1-butanesulfonylcarbamoyl)-3-(2-chloro-4-ethoxybenzyl)-2-methyl-3H-imidazo[4,5-b]pyridine]	151 to 152
CCCNS(=O)(=O)NC(=O)c1ccc2nc(C)n(Cc3ccc(OCC)cc3Cl)c2n1 [Example 10, 3-(2-chloro-4-ethoxybenzyl)-2-methyl-5-((1-propylaminosulfonyl)carbamoyl)-3H-imidazo[4,5-b]pyridine]	152 to 155
CCCCNS(=O)(=O)NC(=O)c1ccc2nc(C)n(Cc3ccc(OCC)cc3Cl)c2n1 [Example 11, 5-((1-butylaminosulfonyl)carbamoyl)-3-(2-chloro-4-ethoxybenzyl)-2-methyl-3H-imidazo[4,5-b]pyridine]	175 to 177
CCCCCS(=O)(=O)NC(=O)c1ccc2nc(C)n(Cc3ccc(OCCC)cc3Cl)c2n1 [Example 12, 3-(2-chloro-4-(1-propoxy)benzyl)-2-methyl-5-(1-pentanesulfonylcarbamoyl)-3H-imidazo[4,5-b]pyridine]	131 to 134
CCCCS(=O)(=O)NC(=O)c1ccc2nc(C)n(Cc3ccc(OCCC)cc3Cl)c2n1 [Example 13, 5-(1-butanesulfonylcarbamoyl)-3-(2-chloro-4-(1-propoxy)benzyl)-2-methyl-3H-imidazo[4,5-b]pyridine]	153 to 154
CCCCCS(=O)(=O)NC(=O)c1ccc2nc(C)n(Cc3ccc(OC(C)C)cc3Cl)c2n1 [Example 14, 3-(2-chloro-4-isopropoxybenzyl)-2-methyl-5-(1-pentanesulfonylcarbamoyl)-3H-imidazo[4,5-b]pyridine]	130 to 133
